Source: patent US20230172915A1, “DHODH INHIBITOR FOR THE TREATMENT OF COVID-19” (priority 2020, published 2023)
Read-outs that look alike come from different tables or passages of the source.

Experiments:
[1] = Single- and repeat-dose toxicology studies in dogs
SARS-CoV-2 [2] = experiment: SARS-CoV-2 infected Vero cells, N-protein antibody and DAPI staining; details: 30 nM, 300 nM
[3] = system: PBMCs plus fibroblasts (HDFSAg); experiment: BioMAP profiling, HDFSAg system; format: cell-based; details: Homo sapiens
Protocol: (§1) The effect of PTC299 on cytokine production was assessed using BioMAP profiling (BioSeek, now part of Eurofins). The BioMAP system is comprised of complex co-cultures of primary peripheral blood mononuclear cells (PBMCs) with other cell types including B cells, fibroblasts, and endothelial cells allowing for the measurement of physiologically relevant biomarker readouts of the activity of a compound. Using this system, cytokine production was evaluated in the following models of primary cell disease models: • Peripheral blood mononuclear cells (PBMCs) plus venular endothelial cells (sAg) • PBMCs plus B cells (BT) • PBMCs plus fibroblasts (HDFSAg) • TH2 cells plus venular endothelial cells (/TH2).
(§2) Abbreviations in Table 4: BCR, B-cell receptor; BT System, co-culture of CD19+ B cells and PBMC that utilizes BCR stimulation and sub-mitogenic TCR stimulation; HDFSAg system, co-culture of human primary dermal fibroblasts and PBMC that is stimulated with sub-mitogenic TCR levels; IL, interleukin; PBMC, Peripheral Blood Mononuclear Cell; SAg system, co-culture of endothelial cells and PBMC stimulated with mitogenic levels of TCR ligands; TCR, T-cell receptor; /TH2 system, co-culture of endothelial cells and Th2 blasts stimulated with TCR ligands and cytokines; Th2, T helper type 2; VEGF, vascular endothelial growth factor.

[4] = system: Respiratory syncytial virus; experiment: Antiviral activity, Respiratory syncytial virus (Hep2 cells); format: cell-based; details: human respiratory syncytial virus, HEp-2
[5] = system: TH2 cells plus venular endothelial cells (/TH2); experiment: BioMAP profiling, /TH2 system; format: cell-based; details: Endothelial cell; for inhibition at 0.1 µM: /TH2, 100 nM
Protocol: as §1, §2

[6] = system: HT1080 human fibrosarcoma cells; experiment: De novo pyrimidine nucleotide synthesis from 15N-glutamine in HT1080 cells; format: cell-based; details: 100 nM
Source text: In this Example, fibrosarcoma cells were used to investigate the effect of PTC299 on pyrimidine nucleotide synthesis. Glutamine is an upstream precursor of dihydroorotic acid in the de novo pyrimidine synthesis pathway, as illustrated in FIG. 1.

[7] = Relative bioavailability tablet versus capsule; details: in vivo, oral; administered with food; read-out: relative bioavailability of tablet formulation compared with the capsule
Protocol: The rationale for this dosing is based on the following: • The dosing regimen utilizes results from PTC’s extensive clinical, safety, and clinical pharmacology experience with the capsule formulation of PTC299 that was used in prior solid tumor clinical studies. • The tablet formulation has approximately 40% relative bioavailability compared with the capsule when administered with food. • The 200 mg BID dosing for 7 days have been tested previously in healthy volunteers in study PTC299-ONC-002-HV with no serious adverse events. […] The dosing of 200 mg BID for the first 7 days will raise the exposure of the drug quickly to accommodate the need for rapid onset of PTC299 activity..

[8] = Phase 1 multiple dose study PTC299-ONC-002-HV in healthy volunteers (PK, safety); format: in vivo, human; details: for AUC: read-out: AUCO-4
Protocol: The PK of the 200 mg BID dosed for 7 days and 50 mg for 7 days was evaluated in a phase 1, escalating, multiple dose, safety, tolerability, and PK study, PTC299-ONC-002-HV (N=32; n=24 received PTC299 and 8 received placebo).
Study PTC299-ONC-002-HV had 2 stages; in Stage 1, doses ranged from 0.3 to 1.2 mg/kg BID, and in Stage 2, a 1.6 mg/kg TID dose was administered. Patients received the capsule formulation of PTC299 for 7 days in both stages. Dose of 200 mg tablet is approximately 1.2 mg/kg capsule whereas 50 mg tablet is approximately 0.3 mg/kg of capsule formulation.

[9] = Bacterial mutagenicity (Ames) test
[10] = Single- and repeat-dose toxicology studies in rats
SARS-CoV-2 [11] = experiment: SARS-CoV-2 titer in Vero cells, TCID50 assay; format: cell-based
[12] = human, plasma, oral, 0.3 mg/kg, 0.3 mg/kg BID, Day 1, capsule
[13] = human, plasma, oral, 0.3 mg/kg, 0.3 mg/kg BID, Day 7, capsule
[14] = human, plasma, oral, 0.6 mg/kg, 0.6 mg/kg BID, Day 1, capsule
[15] = human, plasma, oral, 0.6 mg/kg, 0.6 mg/kg BID, Day 7, capsule
[16] = human, plasma, oral, 1.2 mg/kg, 1.2 mg/kg BID, Day 1, capsule
[17] = human, plasma, oral, 1.2 mg/kg, 1.2 mg/kg BID, Day 7, capsule
[18] = human, plasma, oral, 1.6 mg/kg, 1.6 mg/kg TID, Day 1, capsule
[19] = human, plasma, oral, 1.6 mg/kg, 1.6 mg/kg TID, Day 7, capsule
[20] = Severe acute respiratory syndrome coronavirus 2, Vero cells, extended dose response 0.003-1000 nM

In the case of `COc1ccc([C@H]2c3[nH]c4ccc(Cl)cc4c3CCN2C(=O)Oc2ccc(Cl)cc2)cc1` [PTC299, 4-chlorophenyl (S)-6-chloro-1-(4-methoxyphenyl)-1,3,4,9-tetrahydro-2H-pyrido[3,4-b]indole-2-carboxylate], the “alanine aminotransferase, aspartate aminotransferase, and total bilirubin” value ([1]; dogs dosed through 28 days) is reported as “no increases”, the “histopathologic findings in the liver” value ([1]; dogs dosed through 28 days) is reported as “no histopathologic findings in the liver” and the PTC299-related mortality ([1]; dogs, toxicology studies) is reported as “No PTC299-related mortality was observed”. The “viability of the cells (DAPI stain)” value (SARS-CoV-2 [2]; 3 µM) was “not cytotoxic”, the “viral levels by N-protein antibody staining” value (SARS-CoV-2 [2]; 3 µM versus untreated controls) was “Increasing the PTC299 concentration led to greater reductions” and the inhibition at 0.001 µM ([3]; read-out: % Inhibition sVEGF) was 90%. It also gave an inhibition at 0.01 µM ([3]; read-out: % Inhibition sVEGF) of 84%, an inhibition at 0.1 µM ([3]; read-out: % Inhibition sVEGF) of 60% and an inhibition at 0.001 µM ([3]; HDFSAg, 1 nM, read-out: % Inhibition sIL-6) of 33%. The inhibition at 0.001 µM ([3]; HDFSAg, 1 nM, read-out: % Inhibition sIL-17F) was 46%, the inhibition at 0.01 µM ([3]; HDFSAg, 10 nM, read-out: % Inhibition IL-8) was 25% and the inhibition at 0.01 µM ([3]; HDFSAg, 10 nM, read-out: % Inhibition sIL-2) was 47%. The inhibition at 0.01 µM ([3]; HDFSAg, 10 nM, read-out: % Inhibition sIL-6) was 91%, the inhibition at 0.01 µM ([3]; HDFSAg, 10 nM, read-out: % Inhibition sIL-10) was 73% and the inhibition at 0.01 µM ([3]; HDFSAg, 10 nM, read-out: % Inhibition sIL-17A) was 57%. It also gave an inhibition at 0.01 µM ([3]; HDFSAg, 10 nM, read-out: % Inhibition sIL-17F) of 86%, an inhibition at 0.1 µM ([3]; HDFSAg, 100 nM, read-out: % Inhibition IL-8) of 44% and an inhibition at 0.1 µM ([3]; HDFSAg, 100 nM, read-out: % Inhibition MCP-1) of 33%. The inhibition at 0.1 µM ([3]; HDFSAg, 100 nM, read-out: % Inhibition MMP-1) was 23%, the inhibition at 0.1 µM ([3]; HDFSAg, 100 nM, read-out: % Inhibition sIL-2) was 68% and the inhibition at 0.1 µM ([3]; HDFSAg, 100 nM, read-out: % Inhibition sIL-6) was 96%. It also gave an inhibition at 0.1 µM ([3]; HDFSAg, 100 nM, read-out: % Inhibition sIL-10) of 81%, an inhibition at 0.1 µM ([3]; HDFSAg, 100 nM, read-out: % Inhibition sIL-17A) of 74% and an inhibition at 0.1 µM ([3]; HDFSAg, 100 nM, read-out: % Inhibition sIL-17F) of 83%. The inhibition at 0.1 µM ([3]; HDFSAg, 100 nM, read-out: % Inhibition sTNFa) was 35%, the EC50 [4] was 4 nM and the inhibition at 0.01 µM ([5]; /TH2, 10 nM, read-out: % Inhibition MCP-1 (converted)) was 21%. The inhibition at 0.1 µM ([5]; read-out: % Inhibition MCP-1 (converted)) was 25%, the inhibition at 0.1 µM ([5]; read-out: % Inhibition sIL-17) was 23% and the “suppression of de novo pyrimidine nucleotide biosynthesis” value [6] was “resulted in suppression of de novo pyrimidine nucleotide biosynthesis”. The bioavailability [7] was roughly 40%, the Tl/2 ([8]; 0.3 mg/kg BID, Day 7, capsule) was 164 h and the Tmax ([8]; 0.6 mg/kg BID, Day 1, capsule) was 3.0 h. It also gave a Tl/2 ([8]; 0.6 mg/kg BID, Day 7, capsule) of 210 h, a Tl/2 ([8]; 1.2 mg/kg BID, Day 7, capsule) of 228 h and a Tl/2 ([8]; 1.6 mg/kg TID, Day 7, capsule) of 225 h. The “SAEs during study PTC299-ONC-002-HV” value ([8]; healthy volunteers, 7 days, 0.3 to 1.2 mg/kg BID and 1.6 mg/kg TID) was “no SAEs occurred”, the Cmax [8, 12] was 280 ng/mL and the AUC [8, 12] was 4310 ng·h/mL. The Tmax ([8]; human, plasma, oral, 0.3 mg/kg, 0.3 mg/kg BID, Day 1, capsule, read-out: Tmax) was 4 h, the Cmax [8, 13] was 510 ng/mL and the AUC [8, 13] was 8440 ng·h/mL. The Tmax ([8]; human, plasma, oral, 0.3 mg/kg, 0.3 mg/kg BID, Day 7, capsule, read-out: Tmax) was 3.5 h, the Cmax [8, 14] was 710 ng/mL and the AUC [8, 14] was 10100 ng·h/mL. For the same compound, the Cmax [8, 15] was 1110 ng/mL, the AUC [8, 15] was 18600 ng·h/mL and the Tmax ([8]; human, plasma, oral, 0.6 mg/kg, 0.6 mg/kg BID, Day 7, capsule, read-out: Tmax) was 4 h. For the same compound, the Cmax [8, 16] was 1140 ng/mL, the AUC [8, 16] was 18000 ng·h/mL and the Tmax ([8]; human, plasma, oral, 1.2 mg/kg, 1.2 mg/kg BID, Day 1, capsule, read-out: Tmax) was 3.5 h. For the same compound, the Cmax [8, 17] was 2110 ng/mL, the AUC [8, 17] was roughly 32900 ng·h/mL and the Tmax ([8]; human, plasma, oral, 1.2 mg/kg, 1.2 mg/kg BID, Day 7, capsule, read-out: Tmax) was 4 h. The Cmax [8, 18] was 1670 ng/mL, the AUC [8, 18] was 37100 ng·h/mL and the Cmax [8, 19] was 3530 ng/mL. The AUC [8, 19] was 78600 ng·h/mL, the “bacterial mutagenicity (Ames) test” value [9] was “negative” and the “alanine aminotransferase, aspartate aminotransferase, and total bilirubin” value ([10]; rats dosed through 28 days) was “no increases”. The “histopathologic findings in the liver” value ([10]; rats dosed through 28 days) was “no histopathologic findings in the liver”, the PTC299-related mortality ([10]; rats, toxicology studies) was “No PTC299-related mortality was observed” and the “drop in titer versus untreated cells” value (SARS-CoV-2 [11]; Example 11, 1, 0.5, or 0.25 µM, 24 hours post infection) was “three log drop in titer”. The EC50 (SARS-CoV-2 [11]; [20]) was 2.6 nM, the EC90 (SARS-CoV-2 [11]; [20]) was 53 nM and the viral replication (SARS-CoV-2 [11]; cells preincubated for 18 hours) was “inhibited viral replication”. The “effect of excess uridine on inhibition of SARS-CoV-2 replication” value (SARS-CoV-2 [11]; excess uridine (100 uM)) was “overcame inhibition of SARS-CoV-2 replication” and the “reduction of viral replication” value (SARS-CoV-2 [11]; pre-incubation 2 hours with 250, 500, and 1000 nM, after 24 hours, all dose levels) was “about 3 orders of magnitude”.
